The values that follow come from US20130216614A1, “IMMUNOGENIC COMPOSITIONS AND METHODS FOR TREATING NUEROLOGIC DISORDERS” (Glaxosmithkline Biologicals S.A., priority 2010, published 2013).

A short description of test [1]: Innate cytokine/chemokine profile in sera after injection. It is filed as in vivo, C57BL/6 mice. As for the experimental part: FIG. 17: Innate cytokines profile from sera after either LPS or 3DMPL injected mice using the intraperitoneal route at 2 hr or 6 hr post injection time point. Results are shown in relative units (RU or pg/ml) of various cytokines/chemokines in sera for PBS and LPS or 3DMPL injected mice after 2 hours or 6 hours. N=5 mice per group. […] Tukey post-hoc test used for the comparison following ANOVA-1 analysis.
FIG. 18: Innate cytokines profile from sera after either AS01B, AS03 or AS04D injected mice using the intramuscular at 2 hr or 6 hr post injection time point. Results are shown in relative units (RU or pg/ml) of various cytokines/chemokines in sera for PBS and LPS or 3D MPL injected mice after 2 hours or 6 hours. N=5 mice per group. The bars represent mean±SEM.
We measured several cytokines and chemokines in the sera of C57BL/6 mice 2 and 6 h following a single intraperitoneal injection of either MPL or LPS.
Innate cytokines profile from sera after either AS01B, AS03 or AS04D was injected into mice using the intramuscular route, samples taken at 2 hr or 6 hr post injection time point. Results are shown in relative units (RU or pg/ml) of various cytokines/chemokines in sera for PBS and LPS or MPL injected mice after 2 hours or 6 hours. N=5 mice per group. The bars represent mean±SEM.

Another test concerns APPSwe/PS1 mice. Description: Aβ plaque loading in brain, stereological analysis. It is filed as in vivo. The following applies: 50 μg/mouse i.p. weekly for 12 weeks. The procedure: Five groups of APPSwe/PS1 mice have received one a week for a period of 12 weeks the following treatment: • Gr1: APPSwe/PS1+NaCl 0.9% n(=20), i.p. injections • Gr4: APPSwe/PS1+CRX527 (20 μg/mouse, 130 μl, n=10), i.p. injections • Gr5: APPSwe/PS1+CRX601 (20 μg/mouse, 130 μl, n=10), i.p. injections • Gr6: APPSwe/PS1+3D MPL (50 μg/mouse, 130 μl, n=10), i.p. injections • Gr8 APPSwe/PS1+AS15 • Gr9: APPSwe/PS1+AS01B ( 1/10th of human dose μg/kg, 50 μl, n=10), i.m. injections
Mice were anesthetized under isofluorane and blood was drawn via cardiac puncture before head decapitation. Brains were rapidly removed from the skulls and placed in cold phosphate buffered saline (PBS) solution. Then hemibrains were separated and olfactory bulbs and cerebellum were removed. One hemibrain was rapidly frozen in liquid nitrogen and stored at −80° C. for protein analysis. The other one was postfixed for 2-4 days in 4% paraformaldehyde (PFA), pH 9.5 at 4° C., and then placed in a PFA solution containing 10% sucrose overnight at 4° C. […]
An observer who was blind to the treatment status of the material did all quantitative histological analyses. […] Briefly, the contours of the prefrontal cortex, the hippocampus and the cortex areas were traced as virtual overlay on the […] images and areas were calculated. The area occupied by all Aβ-labeled plaques was determined. […]

For the substance “3-O-desacyl-4′-monophosphoryl lipid A [3D MPL]”, in test [1] (2 h after i.p. injection), the “CCL2 level compared to the LPS group” value is “higher” and the “CXCL-1 level compared to the LPS group” value is reported as “similar”. The “levels of TNF-α and IL-6 in sera” value in test [1] (2 h post i.p. injection) is recorded as “modest increase”. The “levels of TNF-α and IL-6 in sera” value in test [1] (6 h post i.p. injection) was “essentially abolished”. Besides, the “serum cytokine and chemokine levels compared with LPS-treated animals” value in test [1] (single i.p. injection, 2 and 6 h) is given as “substantially lower”. Further, in the test on APPSwe/PS1 mice, the “Amyloid beta plaque number” value is “statistically significant reduction” and the “Aβ total plaque loading by immunofluorescence vs PBS control group” value was “significant difference”.
